Results on six compounds are retold here after article PMC8344022, “Small-molecule inhibitor of AF9/ENL-DOT1L/AF4/AFF4 interactions suppresses malignant gene expression and tumor growth” (Theranostics, 2021).

Molecules are shown by their SMILES. Where “and” joins values, the source holds several entries; their conditions need not be identical. Equal entries are not always repeated.

A word on the IC50: it is the concentration that gives 50% inhibition.

The target of experiment [1] is T1, AF9-DOT1L interaction (Homo sapiens, UniProt P42568).
T1 construct: cDNA for human AF9 AHD domain (475-568) and ENL AHD domain (489-559) was synthesized; made in house; host or cells: E. coli BL21(DE3)
T1 sequence (P42568 475-568): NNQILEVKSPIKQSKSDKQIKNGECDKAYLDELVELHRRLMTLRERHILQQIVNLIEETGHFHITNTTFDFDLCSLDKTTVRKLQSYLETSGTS
The experiment in a line: Alpha assay, AF9 AHD-DOT1L peptide interaction. It is filed as binding. To be noted: read-out: IC50, inhibition of AF9-DOT1L interaction. The source says:
(§1) We developed an Alpha (amplified luminescent proximity homogeneous assay) assay to determine the binding and inhibition of the PPI between maltose-binding protein (MBP)-tagged AF9 AHD and a biotin-labeled DOT1L peptide, using AlphaLisa streptavidin donor beads and anti-MBP acceptor beads. Laser excitation to the donor beads generates singlet oxygen radicals, which can travel for <200 nm in solution and cannot reach the free acceptor beads. The PPI brings the DOT1L coated donor beads and AHD coated acceptor beads together, allowing the radicals to activate the acceptor beads and produce luminescence. […] We also developed a fluorescence polarization (FP) assay. A fluorescein-labeled DOT1L peptide has a higher freedom in solution with a lower polarization value.
Alpha assays. Alpha assays were developed using Perkin-Elmer AlphaLisa anti-MBP kit, which contains streptavidin donor beads and anti-MBP acceptor beads. The assay was performed using a MBP-protein (5 nM), a biotinylated peptide (40 nM), and increasing concentrations of a compound in 25 µL buffer (PBS with 0.5 % BSA, pH 7.5) in 384-well plates according to the manufacturer's protocol and measured with a Tecan SPARK microplate reader. Data were imported into Prism (version 5.0), and IC50 values from 3 independent experiments with standard deviation were obtained by using a standard dose-response curve fitting.

In experiment [2] the target is T1, AF9-DOT1L interaction. The experiment in a line: Fluorescence polarization (FP) inhibition assay, AF9-DOT1L. In kind it is binding.
Description: as §1
Fluorescence polarization assay. It was performed in 96-well black microplates with each well containing a Fluorescein-labeled peptide (2 nM) and increasing concentration of a AF9/ENL protein in a buffer (20 mM HEPES, pH 7.5, 0.01% Triton X-100, 100 µL) for Kd determination. For IC50 determination, a Fluorescein-labeled peptide (2 nM), AF9/ENL protein (100 nM) and increasing concentration of a compound in the same buffer were placed in each well. Upon incubation of 1h, the FP value of each well was determined using a Tecan SPARK microplate reader. Data were similarly processed to obtain Kd or IC50 values.
(Polarisation of emitted light reports the rotation of a fluorescent probe.)

In a further experiment the test system is MCF-7 cells. Put plainly: Antiproliferation assay (MTT). In kind it is cell-based. To be noted: Homo sapiens, MCF7, 168 h, 7-day incubation, read-out: Cytotoxicity EC50. On the procedure: (§2) Antiproliferation assay. Proliferation inhibition assays for suspension blood cancer cells were performed using an XTT assay kit (Roche). Proliferation inhibition assays for solid tumor cell lines MCF-7, MDA-MB-231, Panc1, Panc28 were performed using an MTT assay (Sigma). The antiproliferation EC50 values were determined using Prism 5 and the reported results were the mean values of at least three independent experiments. The incubation time for compound 1 was 7 days and that for EPZ4777 was 14 days.

The next experiment deals with MDA-MB-231 cells. The experiment in a line: Antiproliferation assay (MTT). In kind it is cell-based. To be noted: Homo sapiens, 168 h, 7-day incubation, read-out: Cytotoxicity EC50. On the procedure: as §2
A further experiment deals with Panc-28 cells. The experiment in a line: Antiproliferation assay (MTT). It is filed as cell-based. To be noted: 168 h, 7-day incubation, read-out: Cytotoxicity EC50. On the procedure:
as §2

Another experiment deals with Panc-1 cells. Put plainly: Antiproliferation assay (MTT). In kind it is cell-based. To be noted: Homo sapiens, 168 h, 7-day incubation, read-out: Cytotoxicity EC50. On the procedure: as §2
For experiment [3], the target named is T2, AF9 AHD bound to DOT1L-coated beads (Homo sapiens, UniProt P42568).
T2 construct: cDNA for human AF9 AHD domain (475-568) and ENL AHD domain (489-559) was synthesized; made in house; host or cells: E. coli BL21(DE3)
The experiment in a line: Western blot based pull-down assay. In kind it is binding. To be noted: increasing concentrations. On the procedure: A non-optical pull-down assay was used to further validate compound 1. DOT1L-coated beads were incubated with AF9 AHD in the presence of increasing concentrations of 1.
Western blot based pull-down assay. Biotinylated DOT1L peptide (0.25 mg/mL) was incubated with streptavidin agarose beads in PBS containing 0.1% Triton X-100 (400 µL) for 3h to yield, after washing, DOT1L-coated beads. MBP-AF9 AHD (0.2 µM, 40 µL) was pre-incubated with a compound for 30 min before adding to the beads. After 6 hours incubation at 4 °C, the beads were collected, thoroughly washed, and subjected to SDS-PAGE and analyzed by Western blot using an MBP Mouse mAb (#2396, Cell signaling).
On the technique in general: Immunoblotting shows a protein as a band on a membrane.

In another experiment the test system is cancer cells. Put plainly: Antiproliferation assays, cancer cell panel. In kind it is cell-based. To be noted: all cancer cells tested; read-out: EC50 against proliferation. On the procedure: The differential antiproliferation activities of compound 1 is consistent with its ability to suppress DOT1L/H3K79 methylation and SEC regulated gene expression, which are critical to MLL-r leukemia and Myc-driven blood cancer, but largely dispensable to other solid tumor cells.
as §2

The next experiment concerns Molm-13 cells. The experiment in a line: Antiproliferation assay (XTT). It is filed as cell-based. To be noted: Homo sapiens, 168 h, 7-day incubation, read-out: Cytotoxicity EC50. Here is the method: as §2
On the technique in general: Tetrazolium dyes change colour on reduction, which living cells bring about.

The subject of a further experiment is Jurkat cells. The experiment in a line: Antiproliferation assay (XTT). In kind it is cell-based. To be noted: Homo sapiens, 168 h, 7-day incubation, read-out: Cytotoxicity EC50. On the procedure:
as §2

The test system of a further experiment is MV4;11 cells. Put plainly: Antiproliferation assay (XTT). It is filed as cell-based. To be noted: Homo sapiens, 168 h, 7-day incubation, read-out: Cytotoxicity EC50. On the procedure: as §2
For a further experiment, the system named is Kasumi-1 cells. The experiment in a line: Antiproliferation assay (XTT). In kind it is cell-based. To be noted: Homo sapiens, 168 h, 7-day incubation, read-out: Cytotoxicity EC50. On the procedure: as §2
A further experiment concerns RPMI-8226 cells. The experiment in a line: Antiproliferation assay (XTT). It is filed as cell-based. To be noted: Homo sapiens, 168 h, 7-day incubation, read-out: Cytotoxicity EC50. On the procedure:
as §2

In the next experiment the test system is THP-1 cells. Put plainly: Antiproliferation assay (XTT). In kind it is cell-based. To be noted: Homo sapiens, 168 h, 7-day incubation, read-out: Cytotoxicity EC50. On the procedure:
as §2

Another experiment deals with HL60 cells. The experiment in a line: Antiproliferation assay (XTT). It is filed as cell-based. To be noted: Homo sapiens, HL-60, 168 h, 7-day incubation, read-out: Cytotoxicity EC50. Here is the method:
as §2

Another experiment concerns U266 cells. Put plainly: Antiproliferation assay (XTT). It is filed as cell-based. To be noted: Homo sapiens, U-266, 168 h, 7-day incubation, read-out: Cytotoxicity EC50. On the procedure:
as §2

The test system of experiment [4] is HoxA9, Meis1 and Myc expression in Molm-13 cells. Put plainly: qPCR of MLL target genes. It is filed as cell-based. To be noted: 4 days. Here is the method:
(§3) Next, compound 1 was tested for its ability to change expression of characteristic MLL-r leukemia genes HoxA9, Meis1 and Myc. Myc is also overexpressed in a broad range of AML and other cancers. […] (Figure S5), presumably because SEC is not recruited there.
(§4) RNA extraction and Quantitative real-time PCR (qPCR). 10^5 cells/ml were incubated with a compound for 4 days and the RNA was extracted using RNeasy mini kit (#74104, Qiagen). 100-1000 ng of total RNA was reverse transcribed using iScript™ Reverse Transcription Supermix (Bio-Rad) using the manufacturer's protocol. Quantitative real-time PCR was carried out using Fast SYBR Green Master Mix (Applied Biosystems) according to the manufacturer's instructions. Measurements were performed in triplicate, using GAPDH as the reference gene. Real-time PCR was performed using Biosystems Step One Plus detection system. The following sequences of primers are used: […]

In experiment [5] the test system is HoxA9, Meis1 and Myc expression in MV4;11 cells. Put plainly: qPCR of MLL target genes. It is filed as cell-based. To be noted: 4 days. On the procedure:
as §3, §4

`CC(C)(C)c1ccc(-c2ccc(-n3cc(C(=O)NC4CCNCC4)nc3-c3ccccc3)cc2)cc1` [Compound 2]: the IC50 on AF9-DOT1L interaction [1] is 26.5 µM and ~25 µM; against AF9-DOT1L interaction [2] it was roughly 25 µM.
On to `O=C(NC1CCNCC1)c1cn(-c2ccc(-c3cn[nH]c3)cc2)c(-c2ccccc2)n1` [Compound 3], for which the EC50 in the experiment on MCF-7 cells, with MDA-MB-231 cells, in the experiment with Panc-28 cells, with Panc-1 cells, in the experiment on cancer cells and in the experiment on Molm-13 cells was greater than 50 µM each time. In addition, the EC50 with Jurkat cells, with MV4;11 cells, in the experiment with Kasumi-1 cells, in the experiment with RPMI-8226 cells, with THP-1 cells and with HL60 cells was greater than 50 µM each time. Also, in the experiment on U266 cells, the EC50 was greater than 50 µM. Further, in experiment [3], the “Beads-bound AF9 AHD in pull-down (Western blot)” value was “cannot”. In addition, the IC50 on AF9-DOT1L interaction [1] was greater than 50 µM. Moreover, the “Expression of MLL target genes HoxA9, Meis1 and Myc” value in [4] and in experiment [5] was “had no activity” each time.
As to `CC(C)(C)c1ccc(-n2cc(C(=O)NC3CCNCC3)nc2C2CCCCC2)cc1` [Compound 4], on AF9-DOT1L interaction [1], the IC50 was 24.8 µM.
As for `CC(C)c1nc(C(=O)NC2CCNCC2)cn1-c1ccc(C(C)(C)C)cc1` [Compound 5], on AF9-DOT1L interaction [1], the IC50 stood at 7.8 µM.
With `Cc1nc(C(=O)NC2CCNCC2)cn1-c1ccc(C(C)(C)C)cc1` [Compound 6], at AF9-DOT1L interaction [1], the IC50 is greater than 50 µM.
Still for that read-out and setting: with `CC(C)(C)c1ccc(-n2cc(C(=O)Nc3ccncc3)nc2-c2ccccc2)cc1` [Compound 7] the figure was 22.7 µM.
